Data taken from publication PMC9343080, “Distribution- and Metabolism-Based Drug Discovery: A Potassium-Competitive Acid Blocker as a Proof of Concept” (Research, 2022).
Where two headings read alike, the source gives them in different places.

Key:
[1] = biological target: T1, rabbit gastric H+, K+-ATPase (Oryctolagus cuniculus, UniProt P27112); experiment: In vitro enzymatic activity assay (inorganic phosphate from ATP hydrolysis); type: biochemical
T1 construct: using rabbit gastric H^+, K^+-ATPase; from tissue; host or cells: rabbit stomach (gastric preparation; the method of preparation is not described)
Method: The in vitro enzymatic activity was calculated by measuring the inorganic phosphate produced by the hydrolysis of ATP using rabbit gastric H^+, K^+-ATPase. 0.25 μg enzyme was preincubated at 37°C for 30 min in Tris-HCl buffer (2.0 mL, 50 mM, pH 6.5) containing 5 mM MgCl2, 10 μM valinomycin, 0 or 20 mM KCl, and different concentrations of SH-337 and vonoprazan. The reaction was initiated by adding 5 μL of 5 mM ATP 2Na, and the preparation was incubated for 30 min at 37°C and halted by the addition of 100 μL of malachite green reagent (0.12% malachite green, 7.5% ammonium molybdate, and 11% tween 20 were mixed in a volume ratio of 100 : 25 : 2). H^+, K^+-ATPase activity was calculated after subtracting the enzyme activity in the absence of KCl.

[2] = pKa measurement (pH-metric method); type: physicochemical
Method: Procedure for pKa and log D7.4 measurements. The pKa was determined using pH-metric Method from DMSO Stock Solution. Procedure for Log D determinations: 15 µL of stock solutions of test compounds and control compound was placed in order into their proper 96-well rack. 500 µL of PBS saturated 1-octanol was added into each vial of the cap-less Log D plate followed by the addition of 500 µL of 1-octanol saturated PBS (pH 7.4). One stir stick was added to each vial and a molded PTFE/Silicone plug was used to seal each vial. Then the Log D plate was transferred to the Eppendorf Thermomixer Comfort plate shaker and shaken at 25°C at 1,100 RPM for 1 hour. After completion of 1 hour, plugs were removed and the stir sticks were removed using a big magnet. The samples were then centrifuged at 25°C at 20,000 g for 20 minutes to separate the phases, and pipette and syringe were used to remove the upper (1-octanol) and lower (buffer) phases to the empty tubes, respectively. Aliquots of 5 µL were taken from upper phases followed by addition of 495 µL of a mixture of H2O and acetonitrile (1:1 in v/v). Vortex for 1 minute, and then aliquots of 50 µL were taken from the diluent followed by addition of 450 µL of a mixture of H2O and acetonitrile (1:1 in v/v). And aliquots of 50 µL were taken from lower phases followed by addition of 450 µL of a mixture of H2O and acetonitrile (1:1 in v/v). 200 μL of diluent was transferred to a new 96-well plate for LC-MS/MS analysis. The dilution factor was changed according to the Log D value and the LC-MS signal response. The concentrations of test compound and control compound in 1-octanol/buffer solution were evaluated by LC-MS/MS. The Log D values of the test compounds and control compound were calculated as follows: […]

Rat microsomal stability = type: in vitro ADME
Method: (§1) The in vitro metabolic stabilities of selected compounds were performed using human and rat liver microsomes in triplicate as described previously.

[3] = Human microsomal stability; type: in vitro ADME
Method: as §1

[4] = tested on: histamine-stimulated gastric acid secretion; experiment: In vivo inhibition of histamine-stimulated acid secretion in anesthetized rats; set-up: species or system rat; conditions: for Total acid output, histamine-stimulated model / Inhibition (%), histamine-stimulated model: rats
Method: 60 SPF SD rats weighing 180-220 g were randomly divided into […]: sham, model, SH-337 (2 mg/kg and 4 mg/kg), vonoprazan (2 mg/kg), males and females are equally divided. Fasting for 24 hours, model and sham groups were treated with deionized water. Drugs and vehicle were given through intragastric administration to rats before anesthesia. 1 h after administration, pylorus was ligated. 5 min later, histamine 2HCl (30 mg/10 mL/kg) was injected subcutaneously. At 3 h after histamine administration, the rats were killed by CO2 asphyxiation. The gastric contents were collected in a 10 mL centrifuge tube after removing their stomachs. Centrifuge at 3000 g for 10 min, and then, determine the total acid output during a 3 h period by 0.1 M NaOH [52, 53]. %Inhibition = (average of modelacid–drugacid)/average of modelacid × 100%.

[5] = Metabolite identification and profiling in rat liver microsomes; type: in vitro ADME; conditions: SH-337 10 µM, 30 min incubation
Method: (§2) Liver microsomes (1 mg protein/mL) were suspended in phosphate buffer (50 mM, pH 7.4) containing MgCl2 (6 mM). […] The reactions were initiated at 37°C by the addition of 1 mM NADPH and terminated at 30 min or 60 min (30 min for rat; 60 min for human). The samples were precipitated with acetonitrile at 1 : 2 and further centrifuged; the supernatants were dried with a stream of N2 gas. The residues were reconstituted with 300 μL of 10% acetonitrile/H2O (0.1% TFA) and analyzed by LC-MS/MS. The assays were pursued under the conditions provided in Supplementary Tables S4, S6, S7, and S8.

[6] = Metabolite identification and profiling in human liver microsomes; type: in vitro ADME; conditions: SH-337 10 µM, 60 min incubation
Method: as §2

[7] = Metabolite identification and profiling in rat hepatocytes; type: in vitro ADME; conditions: SH-337, rat hepatocytes, 60 min incubation
Method: (§3) SH-337 was incubated with rat or human hepatocytes at a concentration of 1.0 × 10^6 cells/mL for 60 min or 120 min (rat 60 min, human 120 min) at 37°C in a CO2 incubator. The samples were precipitated with acetonitrile at 1 : 2 and further centrifuged; the supernatants were dried with a stream of N2 gas. The residues were reconstituted with 300 μL of 10% acetonitrile/H2O (0.1% TFA) and analyzed by LC-MS/MS. The assays were pursued under the conditions provided in Supplementary Tables S5–S8.

[8] = Metabolite identification and profiling in human hepatocytes; type: in vitro ADME; conditions: SH-337, human hepatocytes, 120 min incubation
Method: as §3

T1 sequence (P27112 whole entry): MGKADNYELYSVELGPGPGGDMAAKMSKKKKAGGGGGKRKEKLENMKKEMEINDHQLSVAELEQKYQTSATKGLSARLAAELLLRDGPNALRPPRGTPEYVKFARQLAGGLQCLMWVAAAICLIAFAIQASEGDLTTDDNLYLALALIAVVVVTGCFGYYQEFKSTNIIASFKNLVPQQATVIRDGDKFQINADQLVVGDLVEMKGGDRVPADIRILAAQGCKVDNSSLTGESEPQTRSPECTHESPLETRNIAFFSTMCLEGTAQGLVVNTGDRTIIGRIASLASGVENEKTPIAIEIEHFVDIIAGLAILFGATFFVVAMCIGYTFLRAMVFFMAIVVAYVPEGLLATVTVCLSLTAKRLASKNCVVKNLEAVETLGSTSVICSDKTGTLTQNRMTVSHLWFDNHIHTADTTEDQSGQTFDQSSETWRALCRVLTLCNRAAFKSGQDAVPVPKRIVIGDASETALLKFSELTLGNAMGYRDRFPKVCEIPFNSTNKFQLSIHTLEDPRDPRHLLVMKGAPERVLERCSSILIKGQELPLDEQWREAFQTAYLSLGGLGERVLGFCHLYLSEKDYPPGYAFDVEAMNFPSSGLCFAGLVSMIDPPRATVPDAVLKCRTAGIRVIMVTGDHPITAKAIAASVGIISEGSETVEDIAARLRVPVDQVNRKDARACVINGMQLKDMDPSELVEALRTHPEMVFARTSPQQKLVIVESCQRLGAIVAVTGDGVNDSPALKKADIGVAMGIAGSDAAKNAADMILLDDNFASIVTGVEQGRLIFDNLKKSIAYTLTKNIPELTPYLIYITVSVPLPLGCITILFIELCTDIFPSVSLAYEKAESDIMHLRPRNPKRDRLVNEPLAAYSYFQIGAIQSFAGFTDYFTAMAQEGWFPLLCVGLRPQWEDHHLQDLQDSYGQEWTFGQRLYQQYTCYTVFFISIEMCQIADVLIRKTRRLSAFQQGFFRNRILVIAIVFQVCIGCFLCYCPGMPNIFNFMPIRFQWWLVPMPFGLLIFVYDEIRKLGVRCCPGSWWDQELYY
T1 sequence (P18597 whole entry partner): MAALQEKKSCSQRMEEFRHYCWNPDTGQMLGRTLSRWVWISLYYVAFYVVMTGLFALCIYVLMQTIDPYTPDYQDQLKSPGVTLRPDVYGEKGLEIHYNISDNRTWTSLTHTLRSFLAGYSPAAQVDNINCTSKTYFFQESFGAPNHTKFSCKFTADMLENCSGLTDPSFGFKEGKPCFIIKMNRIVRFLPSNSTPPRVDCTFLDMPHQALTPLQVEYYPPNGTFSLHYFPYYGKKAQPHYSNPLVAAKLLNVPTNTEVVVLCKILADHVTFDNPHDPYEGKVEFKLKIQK

For CNCc1cc(-c2ccc(OCC3CC3)cc2F)n(S(=O)(=O)c2cccnc2)c1.Cl.Cl [SH-337, 1-(5-(4-(cyclopropylmethoxy)-2-fluorophenyl)-1-(pyridin-3-ylsulfonyl)-1H-pyrrol-3-yl)-N-methylmethanamine dihydrochloride], the IC50 [1] was 33.8 nM, the “fold greater enzyme inhibitory activity than vonoprazan” value ([1]; H+, K+-ATPase IC50, SH-337 vs. vonoprazan) was 2.0 fold and the pKa [2] was 9.03. The pKa ([2]; read-out: pKa) was 9, the “fold reduction of t1/2 vs. vonoprazan” value (Rat microsomal stability; rat microsomes) was 17.6 fold and the half-life (Rat microsomal stability; rat, rat liver microsomes, read-out: Metabolic stability (t1/2) rat) was 3.1 min. The “fold reduction of t1/2 vs. vonoprazan” value ([3]; human microsomes) was 4.2 fold, the half-life ([3]; human, human liver microsomes, read-out: Metabolic stability (t1/2) human) was 81.4 min and the “In vivo efficacy (% inhibition)” value ([4]; histamine-induced acid secretion in rats, 2 mg/kg, i.g. (Table 2)) was 83%. The “Total acid output, histamine-stimulated model” value ([4]; i.g. 2 mg/kg) was 0.31 ± 0.39^∗∗ 10^−4 mol, the “Inhibition (%), histamine-stimulated model” value ([4]; i.g. 2 mg/kg (Table 6)) was 80% and the “Inhibition (%), histamine-stimulated model” value ([4]; i.g. 4 mg/kg) was 93%. The “Total acid output, histamine-stimulated model” value ([4]; i.g. 4 mg/kg) was 0.14 ± 0.48^∗∗ 10^−4 mol, the “Relative peak area, RLMs” value [5] was 45.7% and the “Relative peak area, HLMs” value [6] was 68.9%. For the same compound, the “Relative peak area, RHeps” value [7] was 28.2% and the “Relative peak area, Hheps” value [8] was 76.5%.
